Literature values, collected in patent publication US9700504B2, “Composition and method for an intradermal hair growth solution” (priority 2012, dated 2017).

Tested on: human hair follicles
Conditions: ex vivo human hair follicles and cultured dermal papilla cells

## L-alanyl-L-histidyl-L-lysine-Cu^2+ [AHK-Cu]
  effect on human hair growth: promotes the growth of human hair follicles
